According to patent US11266645B2, “Methods for treating lymphoma” (Alexion Pharmaceuticals, Inc., priority 2018, dated 2022):
Where two headings read alike, the source gives them in different places.

Legend:
[1] = Food and proton pump inhibitor crossover PK study in healthy subjects; type: in vivo, human; conditions: 30 mg oral; for Cmax / AUC(0-inf) / half-life / Tmax: human; for Cmax / AUC(0-inf): po, 30 mg; for AUC(0-inf): read-out: AUC0−inf Mean; for half-life: read-out: T1/2 Mean (converted); for Tmax: read-out: Tmax Median
Method: In an open-label, randomized, 3-period crossover study, healthy subjects received 30 mg cerdulatinib orally. The 3-period treatments were fasted, high-fat diet, and proton pump inhibitor (PPI) esomaprazole, with 14-day washout between treatments. Blood samples were collected up to 72 hours after cerdulatinib treatment. PK endpoints were area under the curve (AUC), maximum concentration (Cmax), Time to Cmax (Tmax), and half-live (T1/2).

[2] = system: Follicular lymphoma (FL) cell lines SU-DHL6, DOHH2, WSU-FSCCL; experiment: FL cell line assays (CellTiter Glo, Edu, caspase 3, immunoblot, phosphoflow); type: cell-based, human
Method: CellTiter Glo, Edu and caspase 3 assays were used to examine the effects of cerdulatinib alone and in combination with venetoclax. Percent inhibition was determined relative to vehicle control. Edu incorporation and caspase 3 cleavage were performed using FACS-based assays and CellTiter Glo in a 96-well black plate.
Follicular lymphoma (FL) cell lines SU-DHL6, DOHH2, or WSU-FSCCL were treated with cerdulatinib in the presence or absence of venetoclax at the indicated concentrations for 24-72 hours and analyzed by Edu, CellTiter-Glo, Annexin V/PI, and CellTiter-Glo).
Whole cell lysates were subjected to immunoblotting on 12% gels and probed with the indicated antibodies using established protocols. Phosphoflow cytometry was performed on an LSRII following cell fixing in 4% PFA and permeabilzation with 50% methanol. Phospho-antibody staining was performed for 1 hour at room temperature.

[3] = system: patients with relapsed/refractory Follicular Lymphoma; conditions: r/r FL, single agent; cited from earlier work
Primary CLL cells = Primary CLL cells with IL-4/CD40L, immunoblotting and annexin V/PI viability; type: cell-based, human
Method: Combination studies were performed with 10 or 100 nM venetoclax or 300 and 1000 nM S63846. Cell viability was assessed by annexin V/PI using flow cytometry and changes in protein expression by immunoblotting.

[4] = system: JAK/STAT signaling (JAK1, JAK3, and TYK2 dependent); experiment: Whole blood IL-2, IL-4, IL-6 stimulated STAT phosphorylation after oral dosing; type: cell-based, human; conditions: for IC50: Homo sapiens
Method: (§1) For PD assessments, serial blood samples were drawn into lithium-heparin vacutainer tubes on Day 1 prior to dosing and again at 0.5, 1, 2, and 4 hours post-dose; on Day 8 at pre-dose and 2 hours post-dose; and Day 28 prior to dosing. Multiple assays were performed using the Day 1 and Day 8 PD samples. SYK-mediated BCR signaling in whole blood was measured prior to and post-dosing by stimulating 100 μL whole blood with 2 μL of anti-human IgD (IgG fraction) and 10 μg anti-human IgM for 10 minutes at 37° C., measuring the induction of pSYK Y525/526, pAKT S473, and pERK Y204. Similarly, whole blood was stimulated with 10 ng/mL of IL-2 (JAK1/3-dependent), IL-4 (JAK1/3-dependent), IL-6 (JAK1/TYK2-dependent) or GM-CSF (JAK2-dependent) for 20 minutes, measuring the induction of pSTAT5 Y694 in T-cells and NK cells, the induction of pSTAT6 Y641 in B cells, T-cells, NK cells, and monocytes, the induction of pSTAT3 Y705 in monocytes, B cells, and T-cells, and the induction of pSTAT5 Y694 in monocytes, respectively. The technical details for these assays were described in Coffey, G., et al., J Pharmacol Exp Ther, 2014. 351(3): p. 538-48. With blood samples from the CLL patients only, tumor cell surface expression of CD5, CD69, CD86, and CXCR4 pre-dose on days 1 and 28 were monitored. The recommended volume of antibodies were applied directly to 100 μL whole blood and incubated for 1 hour at room temperature. Afterwards, 4 mL of BD Lyse/Fix reagent was added to the blood to lyse red blood cells and fix the remaining leukocytes, followed by washing and FACS analysis. For each assay, data were collected using an LSR II instrument (BD Bioscience, San Jose, Calif.) and analyzed using Flowjo software (Flowjo LLC, Ashland, Oreg.). […]
The data were analyzed using the statistical language R and the accessory packages ggplot2 (Wickham, H., Elegant Graphics for Data Analysis. 2016: Springer-Verlag) and drc (Ritz, C., et al., Dose-Response Analysis Using R. PLoS One, 2015. 10(12): p. e0146021). For cell signaling assays, percent inhibition was determined by normalizing the receptor-induced phosphorylation events mean fluorescent intensity (MFI) to that of pre-dose receptor-induced MFI. The resulting relative activities were analyzed by nonlinear regression to a 3-parameter log-logistic function with an upper and lower limit set at 100 and 0%. […] Statistically significant differences between the healthy and patient serum marker at all cycles (Cycle 1 Day 1, Cycle 1 Day 8, and Cycle 2 Day 1) were detected by paired t test. […] The significance of the relation between maximum tumor response and change in a specific biomarker was evaluated using Spearman-Rank-correlation and p value.

xenograft = experiment: Xenograft studies with rituximab; type: in vivo
[5] = system: SYK-mediated BCR signaling; experiment: Whole blood BCR signaling assay after oral dosing (pSYK Y525/526, pERK Y204, pAKT S473); type: cell-based, human; conditions: for IC50: Homo sapiens
Method: as §1, with “The technical details for these assays were described in Coffey, G., et al., J Pharmacol Exp Ther, 2014. 351(3): p. 538-48.” left out, “The recommended volume of antibodies were applied directly to 100 μL whole blood and incubated for 1 hour at room temperature. Afterwards, 4 mL of BD Lyse/Fix reagent was added to the blood to lyse red blood cells and fix the remaining leukocytes, followed by washing and FACS analysis.” left out
The data were analyzed using the statistical language R and the accessory packages ggplot2 (Wickham, H., Elegant Graphics for Data Analysis. 2016: Springer-Verlag) and drc (Ritz, C., et al., Dose-Response Analysis Using R. PLoS One, 2015. 10(12): p. e0146021). For cell signaling assays, percent inhibition was determined by normalizing the receptor-induced phosphorylation events mean fluorescent intensity (MFI) to that of pre-dose receptor-induced MFI. The resulting relative activities were analyzed by nonlinear regression to a 3-parameter log-logistic function with an upper and lower limit set at 100 and 0%. […] The significance of the relation between maximum tumor response and change in a specific biomarker was evaluated using Spearman-Rank-correlation and p value.

In the case of `CCS(=O)(=O)N1CCN(c2ccc(Nc3ncc(C(N)=O)c(NC4CC4)n3)cc2)CC1` [cerdulatinib, 4-(cyclopropylamino)-2-((4-(4-(ethylsulfonyl)piperazin-1-yl)phenyl)amino)pyrimidine-5-carboxamide], the “AUC0−inf Ratio Fed/Fasted” value [1] is reported as 1.16, the “AUC0−inf Ratio PPI/Fasted” value [1] is reported as 1.06 and the “Cmax Ratio Fed/Fasted” value [1] is reported as 1.11. For the same compound, the “Cmax Ratio PPI/Fasted” value [1] was 1.02, the “T1/2 Mean” value ([1]; Fasted) was 14.5 h and the Cmax ([1]; blood, Fed (high-fat diet)) was 187 ng/mL. The AUC(0-inf) ([1]; blood, Fed (high-fat diet)) was 4060 ng·h/mL, the half-life ([1]; blood, Fed (high-fat diet)) was 13.6 h and the Tmax ([1]; blood, Fed (high-fat diet)) was 6 h. It also gave a Cmax ([1]; in vivo, Fasted) of 168 ng/mL, an AUC(0-inf) ([1]; in vivo, Fasted) of 3460 ng·h/mL and a Cmax ([1]; in vivo, PPI (esomaprazole)) of 170 ng/mL. It also gave an AUC(0-inf) ([1]; in vivo, PPI (esomaprazole)) of 3680 ng·h/mL, a half-life ([1]; in vivo, PPI (esomaprazole)) of 14.5 h and a Tmax ([1]; in vivo, PPI (esomaprazole)) of 4 h. For the same compound, the “basal expression of phospho (p)AKT and pERK, anti-IgM and anti-IgG mediated signaling” value ([2]; FL cell lines) was “inhibit”, the Bcl-2 expression ([2]; FL lines) was “minimal impact” and the “Bim RNA level” value ([2]; WSU and DHL6 cells) was “increased”. For the same compound, the “Mcl-1 RNA levels” value ([2]; cerdulatinib alone) was “remained unchanged”, the Mcl-1 expression ([2]; most pronounced in WSU-FSCCL cells) was “down modulation” and the “ORR, previously reported” value [3] was roughly 45%. For the same compound, the “IL-4/CD40L induced Mcl-1 and Bcl-XL expression” value (Primary CLL cells; 1 μM) was “significantly reduced”, the “inhibition of Mcl-1 and Bcl-XL compared to the other kinase inhibitors” value (Primary CLL cells; 1 μM) was “more robust inhibition” and the “synergy with venetoclax to induce apoptosis” value (Primary CLL cells; CLL cells) was “synergized”. For the same compound, the “Bim induction compared to idelalisib and ibrutinib” value (Primary CLL cells; equivalent drug concentrations) was “induced to greater levels”, the IC50 ([4]; B-cell, B cells, patients, read-out: average IC50, IL-4 signaling (pSTAT6 Y641)) was 1080 nM and the IC50 ([4]; B-cell, B cells, patients, read-out: average IC50, IL-6 signaling (pSTAT3 Y705)) was 220 nM. For the same compound, the IC50 ([4]; po, depending on the cell lineage, whole blood, read-out: IC50, measures of JAK/STAT signaling) was 190 to 1110 nM, the “inhibition of IL-2, IL-4, and IL-6 signaling” value ([4]; concentration-dependent) was “potently inhibited” and the “effect on the anti-tumor activity of rituximab” value (xenograft) was “does not interfere”. The IC50 ([5]; po, estimated from PK/PD relationships, whole blood, read-out: IC50, measures of BCR-signaling) was 330 to 730 nM, the IC50 ([5]; following oral dosing, lower and upper limit confidence intervals for ERK and AKT, read-out: IC50 against BCR signaling) was 170 to 740 nM and the “inhibition of BCR-induced pSYK Y525/526, pERK Y204 and pAKT S473” value ([5]; at tolerated exposures) was “High level inhibition”.
